Test results: patent publication US20100093678A1, “Compositions and methods of the treatment of obesity and osteoporosis” (THE UNIVERSITY OF GEORGIA RESEARCH FOUNDATION, INC, priority 2008, published 2010)
Several values for one entry are separate records, joined by “and”; a condition that tells them apart may be missing. Equal entries are not always repeated.

Legend:
[1] = tested on: maturing 3T3-L1 preadipocytes; assay: Quantification of lipid content (AdipoRed/Nile Red) in maturing preadipocytes; format: cell-based, mouse; conditions: 0.5 nM 1,25(OH)2D3 (D0.5), 3.12 μM GS (GS3.12), alone or combined; treated during adipogenic phase, measured day 6
Experimental: (§1) 3T3-L1 mouse embryo fibroblasts were obtained from American Type Culture Collection (Manassas, Va.) and were cultured as described elsewhere. Briefly, cells were cultured in DMEM containing 10% bovine calf serum until confluent. Two days after confluence, the cells were stimulated to differentiate with DMEM containing 10% fetal bovine serum (FBS), 167 nM insulin, […], and 1 μM dexamethasone for 2 days. On day 2, differentiation medium was replaced with 10% FBS/DMEM containing 167 nM insulin and incubated for 2 days, followed by culturing with 10% FBS/DMEM for an additional 4 days, at which time >90% of cells were mature adipocytes with accumulated fat droplets. All media contained 1% penicillin streptomycin (10,000 U/ml) and 1% (v/v) 100 mM pyruvate. Cells were maintained at 37° C. in a humidified 5% CO2 atmosphere.
Lipid content was quantified using commercially available AdipoRed™ Assay Reagent. In brief, maturing adipocytes grown in 96-well plates were incubated with vehicle or test compounds during the adipogenic phase and on day 6, culture supernatant was removed and lipid content was quantified by performing AdipoRed™ assay as per the manufacturer's instructions. Treated cells were also stained with Oil Red O and hematoxylin as described by Suryawan and Hu to visualize the lipid content. […]

[2] = tested on: maturing 3T3-L1 preadipocytes; assay: Apoptosis assay (ApoStrand ssDNA ELISA) in maturing preadipocytes; format: cell-based, mouse; conditions: 0.5 nM 1,25(OH)2D3, 3.12 μM GS, alone or combined
Experimental: as §1
Apoptosis assay. For measuring the extent of apoptosis, the ApoStrand ELISA Apoptosis Detection Kit (Biomol, Plymouth Meeting, Pa.) was used. Cells were grown in 96-well plates and incubated with either vehicle or test reagents for the indicated time periods. Cells were then fixed and assayed as per the manufacturer's instructions. The assay selectively detects single-stranded DNA, which occurs in apoptotic cells but not in necrotic cells or cells with DNA breaks in the absence of apoptosis.

PPARγ = assay: Western blot, PPARγ expression in maturing 3T3-L1 preadipocytes; format: cell-based, mouse; conditions: 0.5 nM 1,25(OH)2D3, 3.12 μM GS, alone or combined; days 0-6; vs control
Experimental: (§2) The protein concentration was determined by BCA assay with bovine serum albumin as the standard. Western blot analysis was performed using the commercial NUPAGE system (Novex/Invitrogen), in which a lithium dodecyl sulfate sample buffer (Tris/glycerol buffer, pH 8.5) was mixed with fresh dithiothreitol and added to samples.
(§3) Measurement of signal intensity on PVDF membranes after Western blotting with various antibodies was performed using a Fluor Chem densitomer with the Alpha-EaseFC image processing and analysis software (Alpha Innotech Corp.). For statistical analysis, all data were expressed as integrated density values (IDV), which were calculated as the density values of the specific protein bands/b-actin density values and expressed as percentage of the control. All figures showing quantitative analysis include data from at least three independent experiments.

C/EBPα = assay: Western blot, C/EBPα expression in maturing 3T3-L1 preadipocytes; format: cell-based, mouse; conditions: 0.5 nM 1,25(OH)2D3, 3.12 μM GS, alone or combined; days 0-6; vs control
Experimental: as §2, §3

aP2 = assay: Western blot, aP2 expression in maturing 3T3-L1 preadipocytes; format: cell-based, mouse; conditions: 0.5 nM 1,25(OH)2D3, 3.12 μM GS, alone or combined; days 0-6; vs control
Experimental: as §2, §3

FXR = assay: Western blot, FXR expression in maturing 3T3-L1 preadipocytes; format: cell-based, mouse; conditions: for increase in FXR levels: 3.12 μM GS
Experimental: as §2, §3

[3] = tested on: human mesenchymal stem cells (hMSC); assay: Osteogenic differentiation of hMSC (ALP activity, calcium deposition, Alizarin red S); format: cell-based; conditions: for alp activity: FIG. 8D, osteogenic conditions; for osteogenesis: hMSC cultured under osteogenic conditions; for increased calcium deposition: pretreatment, day 17, XN 5 μM, cGS varying doses
Experimental: Alkaline phosphatase activity (ALP/protein) was measured on day 8. Means that are not denoted with a common letter are different (p<0.001).
(§4) In these further examples, post confluent hMSC were treated with varying doses of cGS or XN in adipogenic induction medium, and lipid deposition and cell viability were measured. Alternatively, pre-confluent hMSC were pre-treated with varying doses of cGS or XN for 3 days prior to addition of osteogenic induction medium. Alkaline phosphatase (ALP) activity was determined 3 days post-induction and indices of mineralization (calcium deposition and Alizarin red S stain) were determined 14-28 days post-induction. […] Inhibition was dose-dependent with ˜50% inhibition observed with 6.5 μM cGS and 0.75 μM XN, respectively. Pretreatment with cGS stimulated osteogenic differentiation in hMSC cultures as indicated by increased ALP activity at day 3 (˜10%; P<0.05) and calcium deposition at day 17 (˜35-60%; P<0.05). Pretreatment with 5 μM XN increased calcium deposition (33%; P<0.05) at day 17.

[4] = tested on: maturing 3T3-L1 preadipocytes; assay: Cell viability assay (CellTiter 96) in maturing preadipocytes; format: cell-based, mouse; conditions: 0.5 nM 1,25(OH)2D3, 3.12 μM GS, alone or combined; 6 days during adipogenesis
Experimental: as §1
Tests were performed in 96-well plates. Two day postconfluent preadipocytes were treated with differentiation medium containing either vehicle or test compounds for 6 days during adipogenesis. On day 6 the treatment medium was removed and the cell viability assay was performed as per the manufacturer's instructions. The absorbance was measured at 490 nm in a plate reader (μQuant Bio-Tek Instruments, Winooski, Vt.) to determine the formazan concentration, which is proportional to the number of live cells.

VDR = assay: Western blot, VDR expression in maturing 3T3-L1 preadipocytes; format: cell-based, mouse; conditions: any time point (day 1, 4, 6); 3.12 μM GS
Experimental: as §2, §3

[5] = tested on: human mesenchymal stem cells (hMSC); assay: Lipid deposition / adipogenesis in hMSC under adipogenic conditions; format: cell-based; conditions: for adipogenesis (lipid accumulation): hMSC cultured under adipogenic conditions
Experimental: Cells were cultured in adipogenic induction medium and treated with control or the combination of R+Q+G (15 μM each). After 18 days adipogenesis was measured and expressed as % control. […] Means that are not denoted with a common letter are different p<0.05.
as §4

[6] = tested on: human mesenchymal stem cells (hMSC); assay: Cell viability in hMSC adipogenic cultures; format: cell-based; conditions: adipogenic conditions; varying doses of cGS; XN 1.5-12 μM
Experimental: (§5) In these further examples, post confluent hMSC were treated with varying doses of cGS or XN in adipogenic induction medium, and lipid deposition and cell viability were measured. Alternatively, pre-confluent hMSC were pre-treated with varying doses of cGS or XN for 3 days prior to addition of osteogenic induction medium. Alkaline phosphatase (ALP) activity was determined 3 days post-induction and indices of mineralization (calcium deposition and Alizarin red S stain) were determined 14-28 days post-induction. […] P<0.05). Pretreatment with 5 μM XN increased calcium deposition (33%; P<0.05) at day 17.

[7] = tested on: human mesenchymal stem cells (hMSC); assay: Cell viability in hMSC osteogenic cultures; format: cell-based; conditions: osteogenic conditions; varying doses of cGS; XN 20 μM
Experimental: as §5

PPARs = conditions: reference [20]; cited from earlier work

C=C1/C(=C\C=C2/CCC[C@]3(C)[C@@H]([C@H](C)CCCC(C)(C)O)CC[C@@H]23)C[C@@H](O)C[C@@H]1O [1,25(OH)2D3, 1,25-dihydroxy vitamin D3, reference compound]
decrease in lipid accumulation [1]: 29.3±3.4%
increase in apoptosis [2]: 18.4±2.3%
decrease in expression of PPARγ (PPARγ): 46.2±4.4% and 46%
decrease in expression of C/EBPα (C/EBPα): 46.3±3.4% and 46%
decrease in expression of aP2 (aP2): 27.2±4.8%
effect on FXR levels (FXR; any time point, 0.5 nM 1,25(OH)2D3): no effect
alp activity [3]: significantly increased alp activity

C/C=C1\C(=O)C[C@H]2[C@@H]3CCC4=CC(=O)CC[C@]4(C)[C@H]3CC[C@]12C [GS, cis-Guggulsterone]
decrease in lipid accumulation [1]: 29.7±2.7%
decrease in cell viability [4]: did not have any significant effect
increase in apoptosis [2]: did not have any significant effect
decrease in expression of PPARγ (PPARγ): did not significantly alter
decrease in expression of C/EBPα (C/EBPα): did not significantly alter
decrease in expression of aP2 (aP2): did not significantly alter
effect on VDR expression (VDR): did not significantly alter
effect on FXR expression (FXR; day 1, 3.12 μM GS alone or with 0.5 nM 1,25(OH)2D3): did not have any significant effect
increase in FXR levels (FXR; day 4): 30.6±9.3%
increase in FXR levels (FXR; day 6): 64.8±10%
inhibition of lipid deposition ([5]; 6.5 μM cGS, 0.75 μM XN, adipogenic conditions): ~50%
adipogenesis (lipid accumulation) [5]: reduced adipogenesis
cell number (viability) [6]: dose-dependent increase
cell number (viability) [7]: dose-dependent increase
osteogenesis [3]: promoted osteogenesis
increased ALP activity ([3]; pretreatment 3 days before osteogenic induction, day 3 post-induction): ~10%
increased calcium deposition [3]: 35-60%
interaction with PPARs (PPARs): did not interact

COc1cc(O)c(CC=C(C)C)c(O)c1C(=O)/C=C/c1ccc(O)cc1 [XN, xanthohumol]
inhibition at 0.75 µM ([5]; Homo sapiens, Mesenchymal stem cells, 6.5 μM cGS, 0.75 μM XN, adipogenic conditions): ~50%
adipogenesis (lipid accumulation) [5]: reduced adipogenesis
cell number (viability) [6]: increased cell viability dose-dependently
cell number (viability) [7]: decreased viability
osteogenesis [3]: promoted osteogenesis
increased calcium deposition [3]: 33%

O=c1c(-c2ccc(O)cc2)coc2cc(O)cc(O)c12 [genistein, 5,7-Dihydroxy-3-(4-hydroxyphenyl)chromen-4-one]
alp activity [3]: significantly increased alp activity
osteogenesis [3]: promoted osteogenesis

O=c1c(O)c(-c2ccc(O)c(O)c2)oc2cc(O)cc(O)c12 [quercetin, 2-(3,4-dihydroxyphenyl)-3,5,7-trihydroxy-4H-chromen-4-one]
adipogenesis (lipid accumulation) [5]: reduced adipogenesis
osteogenesis [3]: promoted osteogenesis

vitamin D [reference compound]
osteogenesis [3]: promoted osteogenesis
